How the values were obtained:
[1] = target: T1, [MCL-1]-[compound of formula (I)]-[CRBN/DDB1] complex (Homo sapiens, UniProt Q07820+Q96SW2); experiment: HTRF ternary complex assay; assay type: binding; settings: ternary complex formation; read-out: HTRF ternary complex Average pEC50 by molecule (converted)
Procedure: The effect of the bifunctional compounds of the invention on the formation of a ternary complex composed of [MCL-1]-[compound of formula (I)]-[CRBN/DDB1] was investigated.
Mix of protein solution were prepared: • 48 nM hMcl-1 and 105.6 nM CRBN was prepared in PPI Europium detection buffer with 2 mM DTT. • Acceptor and donor stock solutions were diluted 100 times in PPI Europium detection buffer. Equal volumes of both reagents were mixed. Finally giving 3 nM of Streptavidin-Eu cryptate […] and 6.67 nM of Anti-6× his-d2 […].
5 μl of protein mix was dispensed to all wells. The tested compounds in dose-response were dispensed onto a white 384-well low volume plate (Greiner, 784075). DMSO was backfilled to all wells, resulting in a final DMSO content of 0.5%. Wells containing only DMSO served as background. Next, 5 μl of solution with donor and acceptor was added to the wells.
The plate was sealed with transparent film and shaken using a VibroTurbulator for 60 see at level 3. The plate was then spun down shortly (10 s, 1000 rcf) and incubated at 25° C. for 180 min.
The read-out was performed with plate reader (Pherastar, BMG Labtech) in time resolved fluorescence mode. Filterset: TR 337 665 620.
The results were analyzed as follows: • 1) an average of fluorescence for background signal was calculated and used as a negative control; • 2) raw fluorescence values for tested compounds were normalized against negative controls; • 3) bell shape curve was fitted to a gaussian distribution using a non-linear least squares Gauss-Newton algorithm; • 4) EC50 and pEC50 values were determined.

[2] = target: T1, [MCL-1]-[compound of formula (I)]-[CRBN/DDB1] complex; experiment: AlphaLISA dose response ternary complex formation assay; assay type: binding; settings: read-out: AlphaLISA dose response Average pEC50 by molecule (converted)
Method in brief: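 EC50 comes from dose–response of AlphaLISA luminescence (excitation 680, emission 615 nm), normalised between DMSO background and an internal positive control, with concentrations past the hook point dropped. Ternary complex formed by mixing bead-bound biotin-hMCL-1 and His-CRBN/DDB1 (protein solutions 40 and 200 nM) with compound in 2% DMSO, 30 min, 25 °C.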

MV-4-11 cells = experiment: Cell viability assay (CellTiter-Glo), MV-4-11; assay type: cell-based; settings: Homo sapiens, MV4-11, 24 hours incubation, 1% FBS, read-out: Average pIC50 by molecule MV-4-11 (converted)
Method in brief: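 OPM-2, MV-4-11 and ARH-77 cells were grown in medium with 1% FBS and treated with compound in 1/3 dilutions from 30 uM (9–12 points, 0.5% DMSO). Viability was read by CellTiter-Glo luminescence after 24 hours and normalized to DMSO control.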

ARH-77 cells = experiment: Cell viability assay (CellTiter-Glo), ARH-77; assay type: cell-based; settings: Homo sapiens, ARH-77, 24 hours incubation, 1% FBS, read-out: Average pIC50 by molecule ARH-77 (converted)
Source text: The effect of various compounds of the invention on the viability of OPM-2, MV-4-11 and ARH-77 cell lines was investigated, using the CTG protocol described below.
OPM-2 and MV-4-11 cell lines are derived from multiple myeloma and acute myeloid leukaemia, respectively. Both cell lines are described in the literature as MCL-1 dependent lines, as opposed to lymphoblast-like ARH-77 cell line, which is described as independent of MCL-1 (Tron A E et al. Nat Commun. 2018; 9: 5341; Caenepeel S et al. Cancer Discov. 2018 December; 8(12):1582-1597).
Cells (OPM-2, MV-4-11 or ARH-77) were seeded on […] in a growth medium with FBS reduced to 1%. Next, compound stocks were pre-diluted in DMSO and added directly to the cells growth medium (final DMSO concentration: 0.5%). Compound concentrations used in this assay: 1/3 dilutions starting at 30 uM (9 to 12 points).
After 24 hours of incubation, cell viability was evaluated using CellTiter-Glo Luminescent Cell Viability Assay (Promega, cat #G7572). Luminescence signal was measured using a CLARIOstar Plus Multi-Mode Microplate Reader (574-590 nm).
Results were normalized to DMSO control.

T1 sequence (Q07820 whole entry): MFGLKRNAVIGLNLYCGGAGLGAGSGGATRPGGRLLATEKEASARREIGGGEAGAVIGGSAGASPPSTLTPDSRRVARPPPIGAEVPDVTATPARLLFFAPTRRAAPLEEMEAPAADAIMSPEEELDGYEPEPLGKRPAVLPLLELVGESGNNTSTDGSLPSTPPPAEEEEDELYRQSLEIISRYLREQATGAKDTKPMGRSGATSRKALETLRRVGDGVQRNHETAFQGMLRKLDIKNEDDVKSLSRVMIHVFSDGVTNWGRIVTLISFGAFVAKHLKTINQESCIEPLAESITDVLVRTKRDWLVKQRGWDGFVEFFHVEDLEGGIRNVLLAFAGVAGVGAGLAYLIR
T1 sequence (Q96SW2 whole entry): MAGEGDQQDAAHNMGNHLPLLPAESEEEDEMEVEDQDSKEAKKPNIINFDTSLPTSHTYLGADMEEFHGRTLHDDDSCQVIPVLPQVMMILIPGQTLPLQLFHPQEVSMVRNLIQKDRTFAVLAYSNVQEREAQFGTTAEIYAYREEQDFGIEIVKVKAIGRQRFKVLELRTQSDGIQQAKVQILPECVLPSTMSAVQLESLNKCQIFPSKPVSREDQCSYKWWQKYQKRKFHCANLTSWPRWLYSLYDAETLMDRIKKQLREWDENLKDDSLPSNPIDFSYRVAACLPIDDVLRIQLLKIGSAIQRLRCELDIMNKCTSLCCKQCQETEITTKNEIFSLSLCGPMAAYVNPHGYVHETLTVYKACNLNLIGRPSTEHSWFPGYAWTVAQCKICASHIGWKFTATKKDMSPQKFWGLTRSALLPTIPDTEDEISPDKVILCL
T1 sequence (Q16531 whole entry partner): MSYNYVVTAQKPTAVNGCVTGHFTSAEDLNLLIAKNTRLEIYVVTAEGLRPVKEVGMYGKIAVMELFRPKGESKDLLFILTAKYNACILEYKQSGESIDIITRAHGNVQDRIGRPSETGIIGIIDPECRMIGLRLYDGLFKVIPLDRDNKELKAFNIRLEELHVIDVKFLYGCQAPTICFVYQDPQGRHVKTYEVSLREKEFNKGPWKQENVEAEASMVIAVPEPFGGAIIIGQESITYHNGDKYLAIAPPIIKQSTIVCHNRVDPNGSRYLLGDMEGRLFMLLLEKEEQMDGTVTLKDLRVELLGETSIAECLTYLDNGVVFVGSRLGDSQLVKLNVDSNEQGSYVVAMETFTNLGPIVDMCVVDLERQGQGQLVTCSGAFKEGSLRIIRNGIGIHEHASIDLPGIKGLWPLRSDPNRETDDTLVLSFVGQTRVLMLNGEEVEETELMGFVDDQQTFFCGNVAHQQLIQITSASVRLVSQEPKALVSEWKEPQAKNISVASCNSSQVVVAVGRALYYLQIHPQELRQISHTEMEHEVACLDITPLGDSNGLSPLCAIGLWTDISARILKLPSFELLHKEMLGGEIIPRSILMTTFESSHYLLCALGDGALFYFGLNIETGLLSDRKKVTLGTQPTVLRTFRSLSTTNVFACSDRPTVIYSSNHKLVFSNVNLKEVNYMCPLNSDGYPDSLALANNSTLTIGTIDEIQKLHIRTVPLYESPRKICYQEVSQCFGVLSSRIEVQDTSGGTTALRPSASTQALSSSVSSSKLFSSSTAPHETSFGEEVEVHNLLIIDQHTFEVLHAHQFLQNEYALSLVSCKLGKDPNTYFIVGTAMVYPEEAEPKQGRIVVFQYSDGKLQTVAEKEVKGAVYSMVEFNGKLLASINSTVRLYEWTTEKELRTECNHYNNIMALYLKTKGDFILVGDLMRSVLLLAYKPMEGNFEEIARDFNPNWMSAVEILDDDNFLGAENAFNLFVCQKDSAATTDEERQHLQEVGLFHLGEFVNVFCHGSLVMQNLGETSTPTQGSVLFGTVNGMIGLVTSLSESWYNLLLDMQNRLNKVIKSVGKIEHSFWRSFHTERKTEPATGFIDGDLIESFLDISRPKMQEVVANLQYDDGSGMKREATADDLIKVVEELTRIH

SMILES | EC50 [1] | EC50 [2] | IC50 (MV-4-11 cells) | IC50 (ARH-77 cells)
Cc1nn(C)c(C)c1-c1c(Cl)ccc2c(CCCOc3cccc4cc(F)ccc34)c(C(=O)O)n(CCN3CC4(CCN(C(=O)COc5cccc6c5CN(C5CCC(=O)NC5=O)C6=O)CC4)C3)c12 (stereo not shown) [Compound 302, 6-Chloro-1-(2-(7-(2-((2-(2,6-dioxopiperidin-3-yl)-1-oxoisoindolin-4-yl)oxy)acetyl)-2,7-diazaspiro[3.5]nonan-2-yl)ethyl)-3-(3-((6-fluoronaphthalen-1-yl)oxy)propyl)-7-(1,3,5-trimethyl-1H-pyrazol-4-yl)-1H-indole-2-carboxylic acid] | < 0.01 µM | – | – | –
Cc1nn(C)c(C)c1-c1c(Cl)ccc2c(CCCOc3cccc4cc(F)ccc34)c(C(=O)O)n(CCCOCCOc3cccc4c3CN(C3CCC(=O)NC3=O)C4=O)c12 (stereo not shown) [Compound 329, 6-Chloro-1-[3-(2-{[2-(2,6-dioxopiperidin-3-yl)-1-oxo-2,3-dihydro-1H-isoindol-4-yl]oxy}ethoxy)propyl]-3-{3-[(6-fluoronaphthalen-1-yl)oxy]propyl}-7-(1,3,5-trimethyl-1H-pyrazol-4-yl)-1H-indole-2-carboxylic acid] | – | < 0.1 µM | ≤ 0.316 µM | > 10 µM
Cc1nn(C)c(C)c1-c1c(Cl)ccc2c(CCCOc3cccc4cc(F)ccc34)c(C(=O)O)n(CCN3CCN(C(=O)COc4cccc5c4CN([C@H]4CCC(=O)NC4=O)C5=O)CC3)c12 (single isomer, unassigned) [Compound 296] | – | < 0.1 µM | ≤ 0.0316 µM | > 10 µM
Cc1nn(C)c(C)c1-c1c(Cl)ccc2c(CCCOc3cccc4cc(F)ccc34)c(C(=O)O)n(CCN3CCN(C(=O)Cn4c(C)nc5c(C(=O)NC6CCC(=O)NC6=O)cc(Br)cc54)CC3)c12 (stereo not shown) [Compound 273, 1-{2-[4-(2-{6-Bromo-4-[(2,6-dioxopiperidin-3-yl)carbamoyl]-2-methyl-1H-1,3-benzodiazol-1-yl}acetyl)piperazin-1-yl]ethyl}-6-chloro-3-{3-[(6-fluoronaphthalen-1-yl)oxy]propyl}-7-(1,3,5-trimethyl-1H-pyrazol-4-yl)-1H-indole-2-carboxylic acid] | – | < 0.01 µM | ≤ 0.316 µM | > 10 µM
Cc1nn(C)c(C)c1-c1c(Cl)ccc2c(CCCOc3cccc4cc(F)ccc34)c(C(=O)O)n(CCCCNC(=O)CNc3cccc4c3C(=O)N(C3CCC(=O)NC3=O)C4=O)c12 (stereo not shown) [Compound 325, 6-Chloro-1-[4-(2-{[2-(2,6-dioxopiperidin-3-yl)-1,3-dioxo-2,3-dihydro-1H-isoindol-4-yl]amino}acetamido)butyl]-3-{3-[(6-fluoronaphthalen-1-yl)oxy]propyl}-7-(1,3,5-trimethyl-1H-pyrazol-4-yl)-1H-indole-2-carboxylic acid] | – | < 0.01 µM | ≤ 0.1 µM | > 10 µM
Cc1nn(C)c(C)c1-c1c(Cl)ccc2c(CCCOc3cccc4cc(F)ccc34)c(C(=O)O)n(CCN3CCN(C(=O)[C@@H](C)Oc4cccc5c4C(=O)N(C4CCC(=O)NC4=O)C5=O)CC3)c12 (stereo partly drawn) [Compound 315, 6-Chloro-1-(2-{4-[(2R)-2-{[2-(2,6-dioxopiperidin-3-yl)-1,3-dioxo-2,3-dihydro-1H-isoindol-4-yl]oxy}propanoyl]piperazin-1-yl}ethyl)-3-{3-[(6-fluoronaphthalen-1-yl)oxy]propyl}-7-(1,3,5-trimethyl-1H-pyrazol-4-yl)-1H-indole-2-carboxylic acid] | – | < 0.1 µM | ≤ 0.0316 µM | > 3.16 µM
Cc1nn(C)c(C)c1-c1c(Cl)ccc2c(CCCOc3cccc4cc(F)ccc34)c(C(=O)O)n(CCN3CCN(C(=O)[C@H](C)Oc4cccc5c4C(=O)N(C4CCC(=O)NC4=O)C5=O)CC3)c12 (mixture of isomers) [Compound 318, 6-Chloro-1-(2-(4-((2S)-2-((2-(2,6-dioxopiperidin-3-yl)-1,3-dioxoisoindolin-4-yl)oxy)propanoyl)piperazin-1-yl)ethyl)-3-(3-((6-fluoronaphthalen-1-yl)oxy)propyl)-7-(1,3,5-trimethyl-1H-pyrazol-4-yl)-1H-indole-2-carboxylic acid] | – | < 0.1 µM | ≤ 0.0316 µM | > 10 µM
Cc1nn(C)c(C)c1-c1c(Cl)ccc2c(CCCOc3cccc4ccccc34)c(C(=O)O)n(CCC3CCN(C(=O)COc4cccc5c4CN(C4CCC(=O)NC4=O)C5=O)CC3)c12 (stereo not shown) [Compound 223, 6-chloro-1-{2-[1-(2-{[2-(2,6-dioxopiperidin-3-yl)-1-oxo-2,3-dihydro-1H-isoindol-4-yl]oxy}acetyl)piperidin-4-yl]ethyl}-3-[3-(naphthalen-1-yloxy)propyl]-7-(1,3,5-trimethyl-1H-pyrazol-4-yl)-1H-indole-2-carboxylic acid] | – | < 0.1 µM | ≤ 0.316 µM | > 10 µM
Cc1nn(C)c(C)c1-c1c(Cl)ccc2c(CCCOc3cccc4cc(F)ccc34)c(C(=O)O)n(CCN3CCN(C(=O)Cn4c(C)nc5c(C(=O)NC6CCC(=O)NC6=O)ccc(Cl)c54)CC3)c12 (stereo not shown) [Compound 271, 6-Chloro-1-(2-(4-(2-(7-chloro-4-((2,6-dioxopiperidin-3-yl)carbamoyl)-2-methyl-1H-benzo[d]imidazol-1-yl)acetyl)piperazin-1-yl)ethyl)-3-(3-((6-fluoronaphthalen-1-yl)oxy)propyl)-7-(1,3,5-trimethyl-1H-pyrazol-4-yl)-1H-indole-2-carboxylic acid] | – | < 0.1 µM | ≤ 0.1 µM | > 10 µM
Cc1nn(C)c(C)c1-c1c(Cl)ccc2c(CCCOc3cccc4ccccc34)c(C(=O)O)n(CCN3CCN(C(=O)COc4cccc5c4CN(C4CCC(=O)NC4=O)C5=O)C4CC43)c12 (stereo not shown) [Compound 222, 6-chloro-1-{2-[5-(2-{[2-(2,6-dioxopiperidin-3-yl)-1-oxo-2,3-dihydro-1H-isoindol-4-yl]oxy}acetyl)-2,5-diazabicyclo[4.1.0]heptan-2-yl]ethyl}-3-[3-(naphthalen-1-yloxy)propyl]-7-(1,3,5-trimethyl-1H-pyrazol-4-yl)-1H-indole-2-carboxylic acid] | – | < 0.1 µM | ≤ 0.316 µM | > 10 µM
Cc1nn(C)c(C)c1-c1c(Cl)ccc2c(CCCOc3cccc4ccccc34)c(C(=O)O)n(CC[N+]3([O-])CCN(C(=O)COc4cccc5c4CN(C4CCC(=O)NC4=O)C5=O)CC3)c12 (stereo not shown) [Compound 224, 1-(2-(2-carboxy-6-chloro-3-(3-(naphthalen-1-yloxy)propyl)-7-(1,3,5-trimethyl-1H-pyrazol-4-yl)-1H-indol-1-yl)ethyl)-4-(2-((2-(2,6-dioxopiperidin-3-yl)-1-oxoisoindolin-4-yl)oxy)acetyl)piperazine 1-oxide] | – | < 0.1 µM | ≤ 0.316 µM | > 10 µM
COc1ccc(C(=O)NC2CCC(=O)NC2=O)c2nc(C)n(CC(=O)N3CCN(CCn4c(C(=O)O)c(CCCOc5cccc6cc(F)ccc56)c5ccc(Cl)c(-c6c(C)nn(C)c6C)c54)CC3)c12 (stereo not shown) [Compound 272, 6-Chloro-1-(2-(4-(2-(4-((2,6-dioxopiperidin-3-yl)carbamoyl)-7-methoxy-2-methyl-1H-benzo[d]imidazol-1-yl)acetyl)piperazin-1-yl)ethyl)-3-(3-((6-fluoronaphthalen-1-yl)oxy)propyl)-7-(1,3,5-trimethyl-1H-pyrazol-4-yl)-1H-indole-2-carboxylic acid] | – | < 0.1 µM | ≤ 0.1 µM | > 10 µM

Reference: patent US20240294499A1, “TARGETED PROTEIN DEGRADATION USING BIFUNCTIONAL COMPOUNDS THAT BIND UBIQUITIN LIGASE AND TARGET MCL-1 PROTEIN” (Captor Therapeutics S.A., priority 2021, published 2024)
